# Laboratory results published in US10449248B2, “Nutritional composition for improving the mammalian immune system” (N.V. Nutricia, priority 2008, dated 2019).
# System: HepG2 cells
# Assay: Glutathione content of HepG2 cells with or without glutathione precursor amino acids
# Format: cell-based
# Details: in vitro model of normal liver, FIG. 4
row,Structure (SMILES),effect on the glutathione homeostasis in liver HepG2 cells
1,N[C@@H](CS)C(=O)O [cysteine],positive effect
2,NC(=O)CC[C@H](N)C(=O)O [glutamine],positive effect
